Data published in the supplement of paper PMC10307832.

Columns and labels:
Assay in all cases: relative viability (nuclei count vs DMSO), 5 days (fraction); higher = more cells survive
Motesanib + Palbociclib = compound: CC1(C)CNc2cc(NC(=O)c3cccnc3NCc3ccncc3)ccc21 [Motesanib] + CC(=O)c1c(C)c2cnc(Nc3ccc(N4CCNCC4)cn3)nc2n(C2CCCC2)c1=O [Palbociclib] (partner 0.5 µM)
How it was run: (§1)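 After 5 days of treatment, lung cancer cells in 1536-well plates were fixed and stained in a single step (final 0.05% Triton X-100, 1% formaldehyde, 1 ug/ml Hoechst) and their nuclei counted on 4× images. Treatment had been applied by pin tool the day after seeding as one drug alone or as a fixed anchor-drug dose with five library-drug doses (not always all listed) in √10 steps. Relative viability is the nuclei count of treated wells divided by that of vehicle wells, and values are medians of duplicate plates.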

Motesanib + Luminespib = compound: CC1(C)CNc2cc(NC(=O)c3cccnc3NCc3ccncc3)ccc21 [Motesanib] + CCNC(=O)c1noc(-c2cc(C(C)C)c(O)cc2O)c1-c1ccc(CN2CCOCC2)cc1 [Luminespib] (partner 0.01 µM)
How it was run: as §1

Motesanib + AZD7762 = compound: CC1(C)CNc2cc(NC(=O)c3cccnc3NCc3ccncc3)ccc21 [Motesanib] + NC(=O)Nc1cc(-c2cccc(F)c2)sc1C(=O)N[C@H]1CCCNC1 [AZD7762] (partner 0.2 µM)
How it was run: as §1

[1] = compound: C[C@@]1(C(=O)Nc2ccc(F)nc2)CCCN1c1nc(Nc2cc(C3CC3)n[nH]2)c2cccn2n1 + CC(=O)c1c(C)c2cnc(Nc3ccc(N4CCNCC4)cn3)nc2n(C2CCCC2)c1=O [Palbociclib] (partner 0.5 µM)
How it was run: as §1

Cell Line | relative viability (Motesanib + Palbociclib; first compound 0.01 µM) | relative viability (Motesanib + Palbociclib; first compound 0.03162 µM) | relative viability (Motesanib + Palbociclib; first compound 0.1 µM) | relative viability (Motesanib + Palbociclib; first compound 0.3162 µM) | relative viability (Motesanib + Palbociclib; first compound 1 µM) | relative viability (Motesanib + Luminespib; first compound 0.01 µM) | relative viability (Motesanib + Luminespib; first compound 0.03162 µM) | relative viability (Motesanib + Luminespib; first compound 0.1 µM) | relative viability (Motesanib + Luminespib; first compound 0.3162 µM) | relative viability (Motesanib + Luminespib; first compound 1 µM) | relative viability (Motesanib + AZD7762; first compound 0.01 µM) | relative viability (Motesanib + AZD7762; first compound 0.03162 µM) | relative viability (Motesanib + AZD7762; first compound 0.1 µM) | relative viability (Motesanib + AZD7762; first compound 0.3162 µM) | relative viability (Motesanib + AZD7762; first compound 1 µM) | relative viability ([1]; first compound 0.04 µM) | relative viability ([1]; first compound 0.1265 µM) | relative viability ([1]; first compound 0.4 µM) | relative viability ([1]; first compound 1.265 µM)
H3255 | 0.308 | 0.326 | 0.322 | 0.348 | 0.363 | 0.872 | 0.954 | 0.942 | 1.06 | 0.902 | 0.846 | 0.986 | 0.884 | 0.816 | 0.909 | 0.314 | 0.326 | 0.299 | 0.317
201T | 0.34 | 0.343 | 0.358 | 0.371 | 0.373 | 1.02 | 1.02 | 1.11 | 1.01 | 1.05 | 0.592 | 0.617 | 0.734 | 0.637 | 0.672 | 0.317 | 0.264 | 0.311 | 0.365
NCI-H2126 | 0.333 | 0.35 | 0.341 | 0.347 | 0.412 | 0.9 | 0.901 | 0.963 | 0.933 | 0.961 | 1.04 | 1.05 | 0.999 | 1.03 | 1.09 | 0.353 | 0.309 | 0.342 | 0.359
HOP-62 | 0.451 | 0.43 | 0.499 | 0.51 | 0.494 | 0.942 | 0.834 | 0.954 | 0.853 | 0.935 | 0.456 | 0.836 | 0.613 | 0.761 | 0.595 | 0.51 | 0.42 | 0.359 | 0.475
CAL-12T | 0.418 | 0.524 | 0.347 | 0.415 | 0.563 | 0.371 | 0.375 | 0.195 | 0.567 | 0.175 | 0.518 | 0.637 | 0.684 | 0.69 | 0.578 | 0.407 | 0.407 | 0.358 | 0.164
NCI-H1755 | 0.459 | 0.46 | 0.487 | 0.477 | 0.48 | 0.492 | 0.505 | 0.353 | 0.445 | 0.315 | 0.407 | 0.45 | 0.467 | 0.425 | 0.383 | 0.403 | 0.433 | 0.469 | 0.494
